Experimental data as given in PubChem BioAssay AID256 (DTP/NCI, 2004).
“And” between values parts separate entries of the source, which are not always exact repeats. Equal values may be shown once. Toxic doses and inconclusive results are not listed.

Test system: CD2F1 mice, L1210 leukemia ip, survival T/C
Assay: NCI In Vivo Anticancer Drug Screen. Data for tumor model L1210 Leukemia (intraperitoneal) in CD2F1 (CDF1) mice
Conditions: higher = longer survival
Outline: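 Read-out first: treated-group measurement over vehicle-control measurement, expressed as a ratio. Animals bore a transplanted tumor line and were dosed with compound or vehicle.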

[1] = endpoint: mean survival time, dose: 100.0 mg/kg/injection, schedule: Q01DX001 (ip), vehicle: saline with Tween-80
[2] = endpoint: mean survival time, dose: 200.0 mg/kg/injection, schedule: Q01DX001 (ip), vehicle: saline with Tween-80
[3] = endpoint: mean survival time, dose: 400.0 mg/kg/injection, schedule: Q01DX001 (ip), vehicle: saline with Tween-80
[4] = endpoint: mean survival time, dose: 100.0 mg/kg/injection, schedule: Q01DX009 (ip), vehicle: saline with Tween-80
[5] = endpoint: mean survival time, dose: 100.0 mg/kg/injection, schedule: Q04DX003 (ip), vehicle: saline with Tween-80
[6] = endpoint: mean survival time, dose: 200.0 mg/kg/injection, schedule: Q01DX009 (ip), vehicle: saline with Tween-80
[7] = endpoint: mean survival time, dose: 200.0 mg/kg/injection, schedule: Q04DX003 (ip), vehicle: saline with Tween-80
[8] = endpoint: mean survival time, dose: 400.0 mg/kg/injection, schedule: Q01DX009 (ip), vehicle: saline with Tween-80
[9] = endpoint: mean survival time, dose: 400.0 mg/kg/injection, schedule: Q04DX003 (ip), vehicle: saline with Tween-80
[10] = endpoint: mean survival time, dose: 100.0 mg/kg/injection, schedule: Q01DX001 (ip), vehicle: saline
[11] = endpoint: mean survival time, dose: 50.0 mg/kg/injection, schedule: Q01DX009 (ip), vehicle: saline
[12] = endpoint: mean survival time, dose: 100.0 mg/kg/injection, schedule: Q01DX009 (ip), vehicle: saline
[13] = endpoint: mean survival time, dose: 200.0 mg/kg/injection, schedule: Q01DX009 (ip), vehicle: saline

## O=P1(O)c2ccccc2Nc2ccccc21
endpoint: mean survival time, dose: 50.0 mg/kg/injection, schedule: Q01DX009 (ip), vehicle: Klucel (hydroxypropylcellulose) (HPC)
  T/C: 104 % of control
endpoint: mean survival time, dose: 100.0 mg/kg/injection, schedule: Q01DX009 (ip), vehicle: Klucel (hydroxypropylcellulose) (HPC)
  T/C: 93 % of control
endpoint: mean survival time, dose: 200.0 mg/kg/injection, schedule: Q01DX009 (ip), vehicle: Klucel (hydroxypropylcellulose) (HPC)
  T/C: 108 % of control

## CNC(=O)O/N=C1\CCCc2sccc21
[1]
  T/C: 110 % of control
[2]
  T/C: 110 % of control
[3]
  T/C: 101 % of control

## COc1ccc(-n2c(C)nc3c(cnn3C3OC(CO)C(O)C3O)c2=O)cc1 (stereo unspecified)
endpoint: median survival time, dose: 12.5 mg/kg/injection, schedule: Q01DX005 (ip), vehicle: saline
  T/C: 103 % of control
endpoint: median survival time, dose: 25.0 mg/kg/injection, schedule: Q01DX005 (ip), vehicle: saline
  T/C: 102 % of control
endpoint: median survival time, dose: 50.0 mg/kg/injection, schedule: Q01DX005 (ip), vehicle: saline
  T/C: 105 % of control
endpoint: median survival time, dose: 100.0 mg/kg/injection, schedule: Q01DX005 (ip), vehicle: saline
  T/C: 111 % of control
endpoint: median survival time, dose: 200.0 mg/kg/injection, schedule: Q01DX005 (ip), vehicle: saline
  T/C: 103 % of control

## O=C(c1ccccc1)C1OC1c1ccccc1 (stereo unspecified)
[4]
  T/C: 93 % of control
[5]
  T/C: 101 % of control
[6]
  T/C: 94 % of control
[7]
  T/C: 98 % of control
[8]
  T/C: 94 % of control
[9]
  T/C: 101 % of control

## [I-].[Ni+2].[O-]/N=C/c1ccccn1.[O-]/N=C/c1ccccn1.[O-]/N=C/c1ccccn1
[10]
  T/C: 106 % of control

## CC12C(=O)C(C(c3ccccc3)=C1c1ccccc1)C(C(=O)O)C2C(=O)O (stereo unspecified)
[5]
  T/C: 89 % of control
[7]
  T/C: 93 % of control
[9]
  T/C: 101 % of control

## c1ccc(-c2cc3cc4ccccc4cn3c2)cc1
endpoint: median survival time, dose: 50.0 mg/kg/injection, schedule: Q01DX009 (ip), vehicle: saline with Tween-80
  T/C: 104 % of control
endpoint: median survival time, dose: 100.0 mg/kg/injection, schedule: Q01DX009 (ip), vehicle: saline with Tween-80
  T/C: 100 % of control
endpoint: median survival time, dose: 200.0 mg/kg/injection, schedule: Q01DX009 (ip), vehicle: saline with Tween-80
  T/C: 108 % of control
endpoint: median survival time, dose: 400.0 mg/kg/injection, schedule: Q01DX009 (ip), vehicle: saline with Tween-80
  T/C: 113 % of control
endpoint: median survival time, dose: 800.0 mg/kg/injection, schedule: Q01DX009 (ip), vehicle: saline with Tween-80
  T/C: 110 % of control

## Nc1c[nH]c(=O)[nH]c1=O
endpoint: mean survival time, dose: 100.0 mg/kg/injection, schedule: Q04DX002 (ip), vehicle: saline with Tween-80
  T/C: 101 % of control
endpoint: mean survival time, dose: 200.0 mg/kg/injection, schedule: Q04DX002 (ip), vehicle: saline with Tween-80
  T/C: 109 % of control
endpoint: mean survival time, dose: 400.0 mg/kg/injection, schedule: Q04DX002 (ip), vehicle: saline with Tween-80
  T/C: 109 % of control

## O=[N+]([O-])c1ccc(Nc2ccc(Br)cc2)c([N+](=O)[O-])c1
[5]
  T/C: 95 % of control
[7]
  T/C: 93 % of control

## c1ccc(C2Nc3ccccc3NC2c2ccccc2)cc1 (stereo unspecified)
[1]
  T/C: 95 % of control
[2]
  T/C: 97 % of control
[3]
  T/C: 103 % of control

## Cc1ccc(S(=O)(=O)OCCCCCCCCCCOS(=O)(=O)c2ccc(C)cc2)cc1
[4]
  T/C: 91 % of control
[5]
  T/C: 91 % of control
[6]
  T/C: 92 % of control
[7]
  T/C: 97 % of control
[8]
  T/C: 91 % of control
[9]
  T/C: 94 % of control

## CC#CC(=O)OC
endpoint: mean survival time, dose: 50.0 mg/kg/injection, schedule: Q01DX009 (ip), vehicle: saline with Tween-80
  T/C: 104 % of control
[4]
  T/C: 104 % of control
[6]
  T/C: 96 % of control

## Fc1ccc(NC2(c3nnnn3C3CCCCC3)CCN(Cc3ccccc3)CC2)cc1
[1]
  T/C: 95 % of control
[2]
  T/C: 102 % of control
[3]
  T/C: 101 % of control

## N=c1nc2n(cc1F)[C@@H]1O[C@H](CO)[C@@H](O)[C@@H]1O2
endpoint: mean survival time, dose: 17.0 mg/kg/injection, schedule: Q04DX003 (ip), vehicle: saline
  T/C: 119 % of control
endpoint: mean survival time, dose: 25.0 mg/kg/injection, schedule: Q01DX009 (ip), vehicle: saline
  T/C: 155 % of control
[11]
  T/C: 162 % of control and 188 % of control
endpoint: mean survival time, dose: 68.0 mg/kg/injection, schedule: Q04DX003 (ip), vehicle: saline
  T/C: 150 % of control
[10]
  T/C: 110 % of control
[12]
  T/C: 193 % of control and 250 % of control
endpoint: mean survival time, dose: 200.0 mg/kg/injection, schedule: Q01DX001 (ip), vehicle: saline
  T/C: 117 % of control
[13]
  T/C: 224 % of control and 303 % of control
endpoint: mean survival time, dose: 400.0 mg/kg/injection, schedule: Q01DX001 (ip), vehicle: saline
  T/C: 120 % of control
endpoint: mean survival time, dose: 400.0 mg/kg/injection, schedule: Q01DX009 (ip), vehicle: saline
  T/C: 305 % of control and 331 % of control
endpoint: mean survival time, dose: 800.0 mg/kg/injection, schedule: Q01DX009 (ip), vehicle: saline
  T/C: 239 % of control
endpoint: median survival time, dose: 16.0 mg/kg/injection, schedule: Q01DX005 (ip), vehicle: saline
  T/C: 124 % of control
endpoint: median survival time, dose: 256.0 mg/kg/injection, schedule: Q01DX005 (ip), vehicle: saline
  T/C: 216 % of control
endpoint: median survival time, dose: 512.0 mg/kg/injection, schedule: Q01DX005 (ip), vehicle: saline
  T/C: 349 % of control

## O=C(CCCN1CCC2(CC1)CNC(=O)N2c1ccccc1)c1ccc(F)cc1
[1]
  T/C: 101 % of control
[2]
  T/C: 98 % of control
[3]
  T/C: 91 % of control

## CCC(C)C(NC(=O)OCc1ccccc1)C(=O)ON1C(=O)CCC1=O (stereo unspecified)
endpoint: mean survival time, dose: 100.0 mg/kg/injection, schedule: Q04DX003 (ip), vehicle: saline sonified
  T/C: 95 % of control
endpoint: mean survival time, dose: 200.0 mg/kg/injection, schedule: Q04DX003 (ip), vehicle: saline sonified
  T/C: 90 % of control
endpoint: mean survival time, dose: 400.0 mg/kg/injection, schedule: Q04DX003 (ip), vehicle: saline sonified
  T/C: 100 % of control

## COc1cc2ccc3c4cc(OC)c(OC)cc4c[n+](C)c3c2cc1O
endpoint: mean survival time, dose: 75.0 mg/kg/injection, schedule: Q04DX003 (ip), vehicle: Klucel (hydroxypropylcellulose) (HPC)
  T/C: 113 % of control
endpoint: mean survival time, dose: 150.0 mg/kg/injection, schedule: Q04DX003 (ip), vehicle: Klucel (hydroxypropylcellulose) (HPC)
  T/C: 113 % of control
endpoint: mean survival time, dose: 300.0 mg/kg/injection, schedule: Q04DX003 (ip), vehicle: Klucel (hydroxypropylcellulose) (HPC)
  T/C: 119 % of control

## O=C1CCCN1
[11]
  T/C: 91 % of control
[12]
  T/C: 98 % of control
[13]
  T/C: 89 % of control

## Cc1cc(C)c(C(C)(C)O)c(C)c1
[7]
  T/C: 98 % of control
[9]
  T/C: 106 % of control

## CCN(CC)CCSC(=O)c1ccccc1
[11]
  T/C: 103 % of control
[12]
  T/C: 103 % of control

## CC1(c2ccccc2)C(C#N)C(=O)NC(=O)C1C#N (stereo unspecified)
[4]
  T/C: 94 % of control
[5]
  T/C: 102 % of control
[6]
  T/C: 93 % of control
[7]
  T/C: 91 % of control
[9]
  T/C: 91 % of control

## ClCCOCC1CO1 (stereo unspecified)
endpoint: mean survival time, dose: 150.0 mg/kg/injection, schedule: Q04DX003 (ip), vehicle: saline
  T/C: 101 % of control
endpoint: mean survival time, dose: 225.0 mg/kg/injection, schedule: Q04DX003 (ip), vehicle: saline
  T/C: 104 % of control
endpoint: mean survival time, dose: 335.0 mg/kg/injection, schedule: Q04DX003 (ip), vehicle: saline
  T/C: 96 % of control

## CN(C)N=Nc1ccc(SC#N)cc1C(N)=O
endpoint: mean survival time, dose: 18.8 mg/kg/injection, schedule: Q01DX009 (ip), vehicle: Klucel (hydroxypropylcellulose) (HPC)
  T/C: 93 % of control and 103 % of control
endpoint: mean survival time, dose: 37.5 mg/kg/injection, schedule: Q01DX009 (ip), vehicle: Klucel (hydroxypropylcellulose) (HPC)
  T/C: 97 % of control and 106 % of control
endpoint: mean survival time, dose: 75.0 mg/kg/injection, schedule: Q01DX009 (ip), vehicle: Klucel (hydroxypropylcellulose) (HPC)
  T/C: 107 % of control and 108 % of control
endpoint: mean survival time, dose: 150.0 mg/kg/injection, schedule: Q01DX009 (ip), vehicle: Klucel (hydroxypropylcellulose) (HPC)
  T/C: 88 % of control and 110 % of control

## O=[N+]([O-])c1c(O)c(CNCCCO)cc(CNCCCO)c1O
endpoint: median survival time, dose: 6.25 mg/kg/injection, schedule: Q01DX009 (ip), vehicle: saline
  T/C: 100 % of control
endpoint: median survival time, dose: 12.5 mg/kg/injection, schedule: Q01DX009 (ip), vehicle: saline
  T/C: 97 % of control
endpoint: median survival time, dose: 25.0 mg/kg/injection, schedule: Q01DX009 (ip), vehicle: saline
  T/C: 88 % of control
endpoint: median survival time, dose: 50.0 mg/kg/injection, schedule: Q01DX009 (ip), vehicle: saline
  T/C: 92 % of control

## O=C1Cc2cc3c(cc2C=C2CCCN12)OCO3
endpoint: mean survival time, dose: 25.0 mg/kg/injection, schedule: Q01DX009 (ip), vehicle: water
  T/C: 103 % of control
endpoint: mean survival time, dose: 50.0 mg/kg/injection, schedule: Q01DX009 (ip), vehicle: water
  T/C: 97 % of control
endpoint: mean survival time, dose: 100.0 mg/kg/injection, schedule: Q01DX009 (ip), vehicle: water
  T/C: 103 % of control
endpoint: mean survival time, dose: 400.0 mg/kg/injection, schedule: Q01DX009 (ip), vehicle: water
  T/C: 113 % of control
